Data: PubChem BioAssay (NCI)
Several values for one entry are separate records, joined by “and”; a condition that tells them apart may be missing. Equal values may be shown once.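 Following 48 hours of exposure in 96-well plates, responses at five concentrations were used to interpolate endpoints linearly. GI50 marks 50% less growth. TGI denotes the concentration required for complete inhibition of growth.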

What was measured:
Assay in all cases: inhibition of tumour cell growth, NCI panel, 48 h
[1] = tested on: A498 renal
[2] = tested on: CAKI-1 renal
[3] = tested on: HCT-15 colon
[4] = tested on: HOP-62 NSCLC
[5] = tested on: IGROV1 ovarian
[6] = tested on: NCI-H460 lung
[7] = tested on: OVCAR-3 ovarian
[8] = tested on: OVCAR-8 ovarian
[9] = tested on: RXF 393 renal
[10] = tested on: SF-268 CNS

## COc1cccc2c(=O)c3c(sc12)c(N1CCNCC1)nc1ccccc13
[1]
  GI50: 1.69 µM
  TGI: 3.14 µM
[2]
  GI50: 1.64 µM
  TGI: 3.01 µM
[3]
  GI50: 1.53 µM
  TGI: 3.09 µM
[4]
  GI50: 1.87 µM
  TGI: 4.3 µM
[5]
  GI50: 1.41 µM
  TGI: 2.88 µM
[6]
  GI50: 1.72 µM
  TGI: 3.41 µM
[7]
  GI50: 1.67 µM
  TGI: 3.12 µM
[8]
  GI50: 2.43 µM
  TGI: 6.5 µM
[9]
  GI50: 1.53 µM
  TGI: 3.05 µM
[10]
  GI50: 1.75 µM
  TGI: 3.45 µM

## O=C(O)[C@H](NS(=O)(=O)c1ccc([N+](=O)[O-])cc1)c1ccccc1
[2]
  TGI: > 100 µM
[3]
  TGI: > 100 µM
[4]
  TGI: > 100 µM
[5]
  TGI: > 100 µM
[6]
  TGI: > 100 µM
[7]
  TGI: > 100 µM
[8]
  TGI: > 100 µM
[9]
  TGI: > 100 µM
[10]
  TGI: > 100 µM

## COc1cc(/C=C(\C#N)c2ccccc2)cc(OC)c1
[2]
  TGI: > 100 µM
[3]
  TGI: > 100 µM
[4]
  TGI: > 100 µM
[5]
  TGI: > 100 µM
[6]
  TGI: > 100 µM
[7]
  TGI: > 100 µM
[10]
  TGI: > 100 µM

## CN(CCC#N)c1ccc(/C=C(\C#N)c2ccc(Br)cc2)cc1
[1]
  GI50: > 100 µM
  TGI: > 100 µM
[2]
  GI50: > 100 µM
  TGI: > 100 µM
[3]
  GI50: 2.9 µM
  TGI: > 100 µM
[5]
  GI50: > 100 µM
  TGI: > 100 µM
[8]
  GI50: > 100 µM
  TGI: > 100 µM
[9]
  GI50: 3.37 µM
  TGI: > 100 µM
[10]
  GI50: > 100 µM
  TGI: > 100 µM

## O=C1CSC(/C(=N/Nc2ccccc2)c2nc3ccccc3[nH]2)=N1
[1]
  TGI: > 100 µM
[2]
  TGI: 56.1 µM
[3]
  TGI: > 100 µM
[4]
  TGI: 67.3 µM
[5]
  TGI: > 100 µM
[6]
  TGI: > 100 µM
[7]
  TGI: 73.2 µM
[8]
  TGI: > 100 µM
[10]
  TGI: > 100 µM

## COc1ccc(C(=O)COc2ccc(/C=C3\COc4ccc(OC)cc4C3=O)cc2)cc1
[2]
  GI50: 32.4 µM
  TGI: > 100 µM
[3]
  GI50: 22.3 µM
  TGI: > 100 µM
[4]
  GI50: 24.8 µM
  TGI: 47.7 µM
[5]
  GI50: 26 µM
  TGI: 54.7 µM
[6]
  GI50: 57.5 µM
  TGI: > 100 µM
[7]
  GI50: 21 µM
  TGI: 62.2 µM
[8]
  GI50: 18.4 µM
  TGI: 66.5 µM
[9]
  GI50: 21.2 µM
  TGI: 47.6 µM
[10]
  GI50: 23.7 µM
  TGI: 60.5 µM

## C/C(N=NC(=S)N(C)C)=C1\C=CC=CN1O
[1]
  TGI: > 100 µM
[2]
  TGI: > 100 µM
[3]
  TGI: > 84.1 µM
[4]
  TGI: > 47.3 µM
[5]
  TGI: > 100 µM
[6]
  TGI: > 100 µM
[7]
  TGI: > 100 µM
[8]
  TGI: > 94.1 µM
[9]
  TGI: > 100 µM
[10]
  TGI: > 100 µM

## O=C1OC2CCCC[C@@H]2C2C[C@]34CCCCC3[C@@H](C(=O)O4)C12 (some centres undefined)
[1]
  TGI: > 100 µM
[3]
  TGI: > 100 µM
[4]
  TGI: > 100 µM
[6]
  TGI: > 100 µM
[7]
  TGI: > 100 µM
[8]
  TGI: > 100 µM
[9]
  TGI: > 100 µM
[10]
  TGI: > 100 µM

## O=C1CCCC[C@H]1[C@H]1CCC[C@@H]([C@H]2CCCCC2=O)C1=O
[1]
  TGI: > 100 µM
[2]
  TGI: > 100 µM
[3]
  TGI: > 100 µM
[4]
  TGI: > 100 µM
[5]
  TGI: > 100 µM
[6]
  TGI: > 100 µM
[7]
  TGI: > 100 µM
[9]
  TGI: > 100 µM
[10]
  TGI: > 100 µM

## O=C1CC2c3ccccc3CCC2c2ccccc21 (centres undefined)
[1]
  TGI: 41.1 µM
[2]
  TGI: > 100 µM
[3]
  TGI: 50.1 µM
[4]
  TGI: > 100 µM
[5]
  TGI: 86.6 µM
[6]
  TGI: 69.2 µM
[7]
  TGI: 41.8 µM
[8]
  TGI: 53.9 µM
[10]
  TGI: > 100 µM

## Nc1ccc2cc3ccc(N)cc3nc2c1
[2]
  GI50: 0.723 µM
[3]
  GI50: 1.95 µM [middle of 4 runs]
[4]
  GI50: 0.795 µM
[5]
  GI50: 2.07 µM [middle of 4 runs]
  TGI: 7.69 µM [middle of 4 runs]
[7]
  GI50: 1.7 µM
[8]
  GI50: 0.599 µM
[9]
  GI50: 2.03 µM and 1.36 µM and 0.565 µM
  TGI: 5.83 µM and 3.15 µM and 1.97 µM
[10]
  GI50: 1.12 µM
  TGI: 10.2 µM [middle of 4 runs]

## S=C1OC2CCCC[C@H]2O1 (some centres undefined)
[2]
  TGI: > 100 µM
[4]
  TGI: > 100 µM
[5]
  TGI: > 100 µM
[6]
  TGI: > 100 µM
[7]
  TGI: > 100 µM
[8]
  TGI: > 100 µM
[9]
  TGI: > 100 µM
[10]
  TGI: > 100 µM

## CC(=O)C(=CN1CCN(C(=O)c2ccco2)C1=S)C(C)=O
[2]
  GI50: 5.19 µM
  TGI: 19.1 µM
[3]
  GI50: 2.16 µM
  TGI: 5.55 µM
[4]
  GI50: 22 µM
  TGI: 41.7 µM
[5]
  GI50: 3.64 µM
  TGI: 17.3 µM
[6]
  GI50: 1.5 µM
  TGI: 3.42 µM
[7]
  GI50: 11.4 µM
  TGI: 35.9 µM
[8]
  GI50: 8.15 µM
  TGI: 45.1 µM
[9]
  GI50: 1.84 µM
  TGI: 6.24 µM
[10]
  GI50: 2.57 µM
  TGI: 6.72 µM

## CCOC(=O)NC(=O)c1cn(CCCOC(=O)CCCCCCCCCCC(=O)OCCCn2cc(C(=O)NC(=O)OCC)c(=O)[nH]c2=O)c(=O)[nH]c1=O
[4]
  TGI: > 100 µM
[5]
  TGI: > 100 µM
[6]
  TGI: > 100 µM
[7]
  TGI: > 100 µM
[8]
  TGI: > 100 µM
[10]
  TGI: > 100 µM

## O=C1NC2OC(C(O)CO)C(O)C2O1 (centres undefined)
[1]
  TGI: > 100 µM
[2]
  TGI: > 100 µM
[3]
  TGI: > 100 µM
[5]
  TGI: > 100 µM
[6]
  TGI: > 100 µM
[7]
  TGI: > 100 µM
[8]
  TGI: > 100 µM
[10]
  TGI: > 100 µM

## Cc1ncc(CCCN(C)C)cc1Nc1ncc2c(n1)-c1ccc(C(F)(F)F)cc1NC(=S)C2
[1]
  GI50: 0.0219 µM
  TGI: 0.0769 µM
[2]
  GI50: 0.0779 µM
  TGI: 5.54 µM
[3]
  GI50: 0.0389 µM
  TGI: 15 µM
[4]
  GI50: < 0.0155 µM
  TGI: 1.54 µM
[5]
  GI50: 0.43 µM
  TGI: 1.35 µM
[6]
  GI50: < 0.0178 µM
  TGI: 11.9 µM
[7]
  GI50: 0.0582 µM
  TGI: 15.2 µM
[8]
  GI50: < 0.0179 µM
  TGI: 23.1 µM
[10]
  GI50: < 0.0195 µM
  TGI: 13.8 µM

## COc1cc(/C=C/c2ccc(OC)c(OC)c2)cc(OC)c1
[2]
  TGI: 94.1 µM
[3]
  TGI: 23.7 µM
[4]
  TGI: > 100 µM
[5]
  TGI: > 100 µM
[6]
  TGI: 73.6 µM
[7]
  TGI: 69 µM
[8]
  TGI: > 100 µM
[9]
  TGI: 50 µM
[10]
  TGI: > 100 µM

## COc1cc(/C=C/c2cc(/C=C/c3ccc(O)c(OC)c3)n(C(=O)Nc3ccc(C)cc3C)n2)ccc1O
[1]
  GI50: 0.538 µM
  TGI: 1.93 µM
[2]
  GI50: 0.367 µM
  TGI: 5.09 µM
[4]
  GI50: 0.442 µM
  TGI: 1.54 µM
[5]
  GI50: 0.464 µM
  TGI: 2.76 µM
[7]
  GI50: 0.327 µM
  TGI: 1.03 µM
[8]
  GI50: 0.562 µM
  TGI: 2.36 µM
[9]
  GI50: 0.262 µM
  TGI: 0.775 µM

## O=C1CC2CCCC23CC2(CCN13)OCCO2 (centres undefined)
[1]
  TGI: > 100 µM
[2]
  TGI: > 100 µM
[4]
  TGI: > 100 µM
[5]
  TGI: > 100 µM
[6]
  TGI: > 100 µM
[7]
  TGI: > 100 µM
[8]
  TGI: > 100 µM
[9]
  TGI: > 100 µM
[10]
  TGI: > 100 µM
